Tested on: patients
Test: randomised placebo-controlled double-blind study of deramciclane
Assay type: in vivo
Settings: for number of patients with decreased libido: placebo 2 out of 51, p=0.04, Chi-square-test
Procedure: The effects of deramciclane were studied in a randomised placebo-controlled double-blind study. The subjects were randomly assigned to four parallel groups to receive one tablet twice daily (b.i.d) of a placebo, 5 mg (=10 mg/day), 15 mg (=30 mg/day), or 30 mg (=60 mg/day) deramciclane.
When analyzing the number of patients with decreased libido, 2 out of 51 patients on placebo experienced it, but none of the patients treated with deramciclane 15 mg b.i.d. (n=53) or 30 mg b.i.d.(n=54) experienced decreased libido (p=0.04, Chi-square-test). In addition, when the Udvalg for Kliniske Undersogelser (UKU) scale was used, 21% of 53 patients experienced orgastic dysfunction at the baseline but only 12% of them after 8-week treatment with deramciclane 15 mg b.i.d.

SMILES: CN(C)CCO[C@]1(c2ccccc2)C[C@H]2CC[C@]1(C)C2(C)C [deramciclane, (1R,2S,4R)-(−)-2-phenyl 2-(dimethylaminoethoxy)-1,7,7-trimethyl-bicyclo[2.2.1]heptane]
- patients experiencing orgastic dysfunction (UKU scale) (after 8-week treatment with deramciclane 15 mg b.i.d., baseline 21% of 53 patients): 12%
- number of patients with decreased libido (deramciclane 15 mg b.i.d. (=30 mg/day), n=53): none
- number of patients with decreased libido (deramciclane 30 mg b.i.d. (=60 mg/day), n=54): none

Reference: patent publication US20020099098A1, “Method for treating sexual disorders” (priority 2001, published 2002)
